PubChem BioAssay (NCI)
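Grown in 96-well plates, cells were treated for 48 hours with each compound at five concentrations. Insufficient inhibition: endpoint recorded as highest concentration tested. The concentration for full growth arrest is given as TGI.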

Legend:
Assay in all cases: growth of human tumour cells (NCI), 48 h
786-0 renal = test system: 786-0 renal
A498 renal = test system: A498 renal
A549 NSCLC = test system: A549 NSCLC
ACHN renal = test system: ACHN renal
BT-549 breast = test system: BT-549 breast
CAKI-1 renal = test system: CAKI-1 renal
CCRF-CEM leukemia = test system: CCRF-CEM leukemia
COLO 205 colon = test system: COLO 205 colon
DU-145 prostate = test system: DU-145 prostate
EKVX NSCLC = test system: EKVX NSCLC
HCC-2998 colon = test system: HCC-2998 colon
HCT-116 colon = test system: HCT-116 colon
HCT-15 colon = test system: HCT-15 colon
HL-60(TB) leukemia = test system: HL-60(TB) leukemia
HOP-62 NSCLC = test system: HOP-62 NSCLC
HOP-92 NSCLC = test system: HOP-92 NSCLC
HS 578T breast = test system: HS 578T breast
HT29 colon = test system: HT29 colon
IGROV1 ovarian = test system: IGROV1 ovarian
K-562 leukemia = test system: K-562 leukemia
KM12 colon = test system: KM12 colon
LOX IMVI melanoma = test system: LOX IMVI melanoma
M14 melanoma = test system: M14 melanoma
MALME-3M melanoma = test system: MALME-3M melanoma
MCF7 breast = test system: MCF7 breast
MDA-MB-231 breast = test system: MDA-MB-231 breast
MDA-MB-435 = test system: MDA-MB-435
MDA-N = test system: MDA-N
MOLT-4 leukemia = test system: MOLT-4 leukemia
NCI-H226 lung = test system: NCI-H226 lung
NCI-H23 lung = test system: NCI-H23 lung
NCI-H460 lung = test system: NCI-H460 lung
NCI-H522 lung = test system: NCI-H522 lung
NCI/ADR-RES ovarian = test system: NCI/ADR-RES ovarian
OVCAR-4 ovarian = test system: OVCAR-4 ovarian
OVCAR-5 ovarian = test system: OVCAR-5 ovarian
OVCAR-8 ovarian = test system: OVCAR-8 ovarian
PC-3 prostate = test system: PC-3 prostate
RPMI-8226 leukemia = test system: RPMI-8226 leukemia
RXF 393 renal = test system: RXF 393 renal
SF-268 CNS = test system: SF-268 CNS
SF-295 CNS = test system: SF-295 CNS
SF-539 CNS = test system: SF-539 CNS
SK-MEL-2 melanoma = test system: SK-MEL-2 melanoma
SK-MEL-28 melanoma = test system: SK-MEL-28 melanoma
SK-MEL-5 melanoma = test system: SK-MEL-5 melanoma
SK-OV-3 ovarian = test system: SK-OV-3 ovarian
SN12C renal = test system: SN12C renal
SNB-19 CNS = test system: SNB-19 CNS
SNB-75 CNS = test system: SNB-75 CNS
SW-620 colon = test system: SW-620 colon
T-47D breast = test system: T-47D breast
TK-10 renal = test system: TK-10 renal
U251 CNS = test system: U251 CNS
UACC-62 melanoma = test system: UACC-62 melanoma
UO-31 renal = test system: UO-31 renal
OVCAR-3 ovarian = test system: OVCAR-3 ovarian
UACC-257 melanoma = test system: UACC-257 melanoma

In the case of `CN(C)c1ccc(/C=C/C(=O)c2cc(C(C)(C)C)c(O)c(C(C)(C)C)c2)cc1`, the TGI (786-0 renal) is reported as 8.03 µM, the TGI (A498 renal) is reported as greater than 100 µM and the TGI (A549 NSCLC) is reported as greater than 100 µM. For the same molecule, the TGI (ACHN renal) was greater than 100 µM, the TGI (BT-549 breast) was greater than 100 µM and the TGI (CAKI-1 renal) was greater than 58.5 µM. The TGI (CCRF-CEM leukemia) was greater than 25.7 µM, the TGI (COLO 205 colon) was 2.65 µM and the TGI (DU-145 prostate) was 6.8 µM. The TGI (EKVX NSCLC) was greater than 100 µM, the TGI (HCC-2998 colon) was 3.67 µM and the TGI (HCT-116 colon) was 24.4 µM. For the same molecule, the TGI (HCT-15 colon) was greater than 100 µM, the TGI (HL-60(TB) leukemia) was greater than 24.4 µM and the TGI (HOP-62 NSCLC) was greater than 100 µM. It also gave a TGI (HOP-92 NSCLC) greater than 100 µM, a TGI (HS 578T breast) greater than 100 µM and a TGI (HT29 colon) greater than 30.2 µM. For the same molecule, the TGI (IGROV1 ovarian) was greater than 100 µM, the TGI (K-562 leukemia) was greater than 100 µM and the TGI (KM12 colon) was greater than 25.7 µM. For the same molecule, the TGI (LOX IMVI melanoma) was greater than 100 µM, the TGI (M14 melanoma) was greater than 51.7 µM and the TGI (MALME-3M melanoma) was greater than 100 µM. The TGI (MCF7 breast) was greater than 100 µM, the TGI (MDA-MB-231 breast) was 8.69 µM and the TGI (MDA-MB-435) was 1.87 µM. The TGI (MDA-N) was 0.69 µM, the TGI (MOLT-4 leukemia) was greater than 100 µM and the TGI (NCI-H226 lung) was greater than 65.9 µM. It also gave a TGI (NCI-H23 lung) greater than 100 µM, a TGI (NCI-H460 lung) of 2.39 µM and a TGI (NCI-H522 lung) of 6 µM. For the same molecule, the TGI (NCI/ADR-RES ovarian) was 6.64 µM, the TGI (OVCAR-4 ovarian) was greater than 100 µM and the TGI (OVCAR-5 ovarian) was greater than 30.2 µM. For the same molecule, the TGI (OVCAR-8 ovarian) was greater than 100 µM, the TGI (PC-3 prostate) was greater than 100 µM and the TGI (RPMI-8226 leukemia) was 8.63 µM. For the same molecule, the TGI (RXF 393 renal) was 0.511 µM, the TGI (SF-268 CNS) was greater than 52.1 µM and the TGI (SF-295 CNS) was 5.33 µM. For the same molecule, the TGI (SF-539 CNS) was 1.8 µM, the TGI (SK-MEL-2 melanoma) was greater than 100 µM and the TGI (SK-MEL-28 melanoma) was greater than 100 µM. It also gave a TGI (SK-MEL-5 melanoma) of 16.5 µM, a TGI (SK-OV-3 ovarian) greater than 100 µM and a TGI (SN12C renal) greater than 38.7 µM. For the same molecule, the TGI (SNB-19 CNS) was greater than 100 µM, the TGI (SNB-75 CNS) was 0.856 µM and the TGI (SW-620 colon) was greater than 100 µM. For the same molecule, the TGI (T-47D breast) was greater than 100 µM, the TGI (TK-10 renal) was greater than 43.1 µM and the TGI (U251 CNS) was 5.79 µM. For the same molecule, the TGI (UACC-62 melanoma) was greater than 100 µM and the TGI (UO-31 renal) was greater than 100 µM.
`CC(=N/NC(=S)N1CCCCCC1)/C(C)=N\NC(=S)N1CCCCCC1` showed a TGI (786-0 renal) of 9.79 µM, a TGI (A498 renal) of 3.47 µM and a TGI (A549 NSCLC) of 18.1 µM. For the same molecule, the TGI (ACHN renal) was 9.67 µM, the TGI (BT-549 breast) was 11 µM and the TGI (CAKI-1 renal) was 12.4 µM. It also gave a TGI (COLO 205 colon) of 38.5 µM, a TGI (DU-145 prostate) of 8.66 µM and a TGI (EKVX NSCLC) of 10.6 µM. The TGI (HCC-2998 colon) was 18.6 µM, the TGI (HCT-116 colon) was greater than 20.8 µM and the TGI (HCT-15 colon) was 13.6 µM. The TGI (HOP-62 NSCLC) was 15.2 µM, the TGI (HOP-92 NSCLC) was 2.77 µM and the TGI (HS 578T breast) was 11.8 µM. The TGI (HT29 colon) was 7.08 µM, the TGI (IGROV1 ovarian) was 8.44 µM and the TGI (K-562 leukemia) was greater than 100 µM. It also gave a TGI (KM12 colon) of 17.9 µM, a TGI (M14 melanoma) of 57.9 µM and a TGI (MALME-3M melanoma) of 11.1 µM. The TGI (MCF7 breast) was greater than 25.1 µM, the TGI (MDA-MB-231 breast) was greater than 22.8 µM and the TGI (MDA-MB-435) was 3.41 µM. For the same molecule, the TGI (MDA-N) was greater than 100 µM, the TGI (MOLT-4 leukemia) was greater than 100 µM and the TGI (NCI-H226 lung) was 9.23 µM. It also gave a TGI (NCI-H23 lung) of 12.6 µM, a TGI (NCI-H460 lung) of 31.4 µM and a TGI (NCI-H522 lung) of 8.97 µM. The TGI (NCI/ADR-RES ovarian) was 16.8 µM, the TGI (OVCAR-3 ovarian) was 14.3 µM and the TGI (OVCAR-5 ovarian) was greater than 23.5 µM. The TGI (OVCAR-8 ovarian) was greater than 100 µM, the TGI (PC-3 prostate) was 23.8 µM and the TGI (RPMI-8226 leukemia) was greater than 100 µM. The TGI (RXF 393 renal) was 8.88 µM, the TGI (SF-268 CNS) was 11.2 µM and the TGI (SF-295 CNS) was 12.5 µM. It also gave a TGI (SF-539 CNS) greater than 100 µM, a TGI (SK-MEL-28 melanoma) of 3.56 µM and a TGI (SK-MEL-5 melanoma) of 10.8 µM. It also gave a TGI (SK-OV-3 ovarian) of 8.85 µM, a TGI (SN12C renal) of 3.99 µM and a TGI (SNB-19 CNS) of 48.1 µM. The TGI (SNB-75 CNS) was 10.9 µM, the TGI (SW-620 colon) was 5.23 µM and the TGI (T-47D breast) was 3.54 µM. It also gave a TGI (TK-10 renal) of 8.87 µM, a TGI (U251 CNS) of 5.73 µM and a TGI (UACC-257 melanoma) of 13.7 µM. For the same molecule, the TGI (UACC-62 melanoma) was 12.7 µM and the TGI (UO-31 renal) was 54.3 µM.
